From paper PMC12439760 (Bioorganic & medicinal chemistry, 2025)
“And” between values parts separate entries of the source, which are not always exact repeats. Equal values may be shown once.

Experiments:
[1] = target: hCB1 receptor (Homo sapiens, UniProt P21554); test: hCB1 Gαq16-coupled calcium mobilization assay in CHO-K1 cells; type: cell-based; settings: for EC50: hCB1 Ca EC50, CHO cells expressing hCB1 and Gαq16, calcium mobilization
[2] = target: hCB2 receptor (Homo sapiens, UniProt P34972); test: hCB2 Gαq16-coupled calcium mobilization assay in CHO-K1 cells; type: cell-based; settings: hCB2 Ca EC50, CHO cells expressing hCB2 and Gαq16, calcium mobilization
Sequence of hCB2 receptor (P34972 whole entry): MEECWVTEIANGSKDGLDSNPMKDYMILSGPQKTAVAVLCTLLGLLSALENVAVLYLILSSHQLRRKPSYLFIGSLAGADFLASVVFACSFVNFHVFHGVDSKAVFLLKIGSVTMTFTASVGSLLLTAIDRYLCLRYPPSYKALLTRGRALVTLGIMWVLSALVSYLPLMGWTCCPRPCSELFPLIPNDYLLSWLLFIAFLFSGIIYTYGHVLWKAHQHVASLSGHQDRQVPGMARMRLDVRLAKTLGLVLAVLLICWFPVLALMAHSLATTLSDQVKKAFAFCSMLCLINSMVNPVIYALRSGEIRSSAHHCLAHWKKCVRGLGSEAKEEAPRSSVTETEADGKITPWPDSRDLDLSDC

Sequence of hCB1 receptor (P21554 whole entry): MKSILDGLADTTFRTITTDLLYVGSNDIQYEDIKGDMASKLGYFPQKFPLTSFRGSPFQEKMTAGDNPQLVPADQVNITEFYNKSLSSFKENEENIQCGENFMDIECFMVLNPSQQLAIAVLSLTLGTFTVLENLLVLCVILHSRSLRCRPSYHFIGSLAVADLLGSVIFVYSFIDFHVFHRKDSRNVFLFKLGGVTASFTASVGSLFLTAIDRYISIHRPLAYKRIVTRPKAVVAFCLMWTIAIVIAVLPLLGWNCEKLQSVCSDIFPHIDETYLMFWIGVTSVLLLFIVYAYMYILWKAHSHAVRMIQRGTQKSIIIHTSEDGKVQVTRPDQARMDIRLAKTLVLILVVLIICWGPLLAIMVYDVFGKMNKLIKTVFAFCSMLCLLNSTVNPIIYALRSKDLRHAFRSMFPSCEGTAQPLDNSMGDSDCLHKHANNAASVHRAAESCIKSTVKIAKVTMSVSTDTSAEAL

SMILES | EC50 [1] [µM] | EC50 [2] | hCB1 Ca Emax ([1]; percentage of the maximum CP55,940 signal, CHO cells expressing hCB1 and Gαq16) [%]
CC(C)(NC(=O)c1nn(CCc2ccc(F)cc2)c2ccccc12)c1cccc(C(N)=O)c1 [Compound 46, N-[2-(3-Carbamoylphenyl)propan-2-yl]-1-[2-(4-fluorophenyl)ethyl]-1H-indazole-3-carboxamide] | > 10 | > 10 µM | –
NC(=O)N1CCC[C@H](CNC(=O)c2nn(Cc3ccc(F)cc3)c3ccccc23)C1 [Compound 30, N-{[(3R)-1-Carbamoylpiperidin-3-yl]methyl}-1-[(4-fluorophenyl)methyl]-1H-indazole-3-carboxamide] | 0.671 ± 0.161 | – | –
C[C@H](NC(=O)c1nn(Cc2ccc(F)cc2)c2ccccc12)c1cccc(C(N)=O)c1 [Compound 22, N-[(1S)-1-(3-Carbamoylphenyl)ethyl]-1-[(4-fluorophenyl)methyl]-1H-indazole-3-carboxamide] | 0.026 ± 0.002 | – | –
CC(C)(NC(=O)c1nn(Cc2ccc(F)cc2)c2ccccc12)C(=O)Nc1cccc(C(N)=O)c1 [Compound 12, 3-[2-({1-[(4-Fluorophenyl)methyl]-1H-indazol-3-yl}formamido)-2-methylpropanamido]benzamide] | 0.36 ± 0.088 | 0.36 ± 0.048 µM | –
NC(=O)c1cccc(C2(NC(=O)c3nn(Cc4ccc(F)cc4)c4ccccc34)CC2)c1 [Compound 27, N-[1-(3-Carbamoylphenyl)cyclopropyl]-1-[(4-fluorophenyl)methyl]-1H-indazole-3-carboxamide] | 2.74 ± 0.939 | 0.096 ± 0.006 µM | –
O=C(NCc1ccc(F)cc1)c1nn(Cc2ccc(F)cc2)c2ccccc12 [Compound 18, N,1-Bis[(4-fluorophenyl)methyl]-1H-indazole-3-carboxamide] | 0.181 ± 0.02 | 0.168 ± 0.024 µM | –
CC(C)(NC(=O)c1nn(Cc2ccc(F)cc2)c2ccccc12)c1cccc(NC(N)=O)c1 [Compound 26, N-{2-[3-(Carbamoylamino)phenyl]propan-2-yl}-1-[(4-fluorophenyl)methyl]-1H-indazole-3-carboxamide] | 0.59 ± 0.152 | – | –
C[C@@H](NC(=O)c1nn(Cc2ccc(F)cc2)c2ccccc12)c1cccc(C(N)=O)c1 [Compound 23, N-[(1R)-1-(3-Carbamoylphenyl)ethyl]-1-[(4-fluorophenyl)methyl]-1H-indazole-3-carboxamide] | 0.433 ± 0.084 | – | –
CC1(NC(=O)c2nn(Cc3ccc(F)cc3)c3ccccc23)CCCN(CC(N)=O)C1 (stereo not shown) [Compound 42, N-[1-(Carbamoylmethyl)-3-methylpiperidin-3-yl]-1-[(4-fluorophenyl)methyl]-1H-indazole-3-carboxamide] | 0.039 ± 0.001 | 0.041 ± 0.014 µM | –
O=C(NC1CCCCC1)c1nn(Cc2ccc(F)cc2)c2ccccc12 [Compound 37, N-Cyclohexyl-1-[(4-fluorophenyl)methyl]-1H-indazole-3-carboxamide] | 0.023 ± 0.002 | 0.014 ± 0.003 µM | –
NC(=O)CN1CCC[C@H](NC(=O)c2nn(Cc3ccc(F)cc3)c3ccccc23)C1 [Compound 40, N-[(3S)-1-(Carbamoylmethyl)piperidin-3-yl]-1-[(4-fluorophenyl)methyl]-1H-indazole-3-carboxamide] | 0.036 ± 0.014 | 0.022 ± 0.001 µM | –
NC(=O)[C@@H](NC(=O)c1nn(Cc2ccc(F)cc2)c2ccccc12)c1ccccc1 [Compound 7, (2S)-2-({1-[(4-Fluorophenyl)methyl]-1H-indazol-3-yl}formamido)-2-phenylacetamide] | 0.178 ± 0.055 | 0.042 ± 0.009 µM | –
CC(C)(C#N)CCCn1nc(C(=O)NC(C)(C)c2cccc(C(N)=O)c2)c2ccccc21 [Compound 57, N-[2-(3-Carbamoylphenyl)propan-2-yl]-1-(4-cyano-4,4-dimethylbutyl)-1H-indazole-3-carboxamide] | 0.742 ± 0.05 | > 10 µM | –
NC(=O)C1(NC(=O)c2nn(Cc3ccc(F)cc3)c3ccccc23)CCCC1 [Compound 9, N-(1-Carbamoylcyclopentyl)-1-[(4-fluorophenyl)methyl]-1H-indazole-3-carboxamide] | 1.24 ± 0.017 | 0.063 ± 0.006 µM | –
CNC(=O)C(C)(C)NC(=O)c1nn(Cc2ccc(F)cc2)c2ccccc12 [Compound 11, 2-({1-[(4-Fluorophenyl)methyl]-1H-indazol-3-yl}formamido)-N,2-dimethylpropanamide] | 0.182 ± 0.006 | 0.021 ± 0.003 µM | –
NC(=O)[C@H](Cc1ccccc1)NC(=O)c1nn(Cc2ccc(F)cc2)c2ccccc12 [Compound 8, (2S)-2-({1-[(4-Fluorophenyl)methyl]-1H-indazol-3-yl}formamido)-3-phenylpropanamide] | 0.337 ± 0.033 | 0.059 ± 0.007 µM | –
NC(=O)CN1CCC[C@@H](CNC(=O)c2nn(Cc3ccc(F)cc3)c3ccccc23)C1 [Compound 32, N-{[(3S)-1-(Carbamoylmethyl)piperidin-3-yl]methyl}-1-[(4-fluorophenyl)methyl]-1H-indazole-3-carboxamide] | 0.168 ± 0.023 | 0.15 ± 0.006 µM | –
NC(=O)c1ccc(CNC(=O)c2nn(Cc3ccc(F)cc3)c3ccccc23)cc1 [Compound 21, N-[(4-Carbamoylphenyl)methyl]-1-[(4-fluorophenyl)methyl]-1H-indazole-3-carboxamide] | > 10 | 1.38 ± 0.149 µM | –

SMILES | EC50 [1] [µM] | EC50 [2] | hCB1 Ca Emax ([1]; percentage of the maximum CP55,940 signal, CHO cells expressing hCB1 and Gαq16) [%]
CC(=O)Nc1cccc(C(C)(C)NC(=O)c2nn(Cc3ccc(F)cc3)c3ccccc23)c1 [Compound 25, N-[2-(3-Acetamidophenyl)propan-2-yl]-1-[(4-fluorophenyl)methyl]-1H-indazole-3-carboxamide] | – | 0.068 ± 0.001 µM | –
NC(=O)N1CCC[C@@H](CNC(=O)c2nn(Cc3ccc(F)cc3)c3ccccc23)C1 [Compound 29, N-{[(3S)-1-Carbamoylpiperidin-3-yl]methyl}-1-[(4-fluorophenyl)methyl]-1H-indazole-3-carboxamide] | 0.95 ± 0.108 | 0.178 ± 0.045 µM | –
NC(=O)CN1CCC[C@@H](NC(=O)c2nn(Cc3ccc(F)cc3)c3ccccc23)C1 [Compound 41, N-[(3R)-1-(Carbamoylmethyl)piperidin-3-yl]-1-[(4-fluorophenyl)methyl]-1H-indazole-3-carboxamide] | 0.803 ± 0.073 | 0.033 ± 0.001 µM | –
COCCCn1nc(C(=O)NC(C)(C)c2cccc(C(N)=O)c2)c2ccccc21 [Compound 59, N-[2-(3-Carbamoylphenyl)propan-2-yl]-1-(3-methoxypropyl)-1H-indazole-3-carboxamide] | > 10 | 2.56 ± 0.492 µM | –
NC(=O)N1CCC[C@@H](NC(=O)c2nn(Cc3ccc(F)cc3)c3ccccc23)C1 [Compound 39, N-[(3R)-1-Carbamoylpiperidin-3-yl]-1-[(4-fluorophenyl)methyl]-1H-indazole-3-carboxamide] | – | 0.207 ± 0.066 µM | –
CC(C)(NC(=O)c1nn(CCC2CCCC2)c2ccccc12)c1cccc(C(N)=O)c1 [Compound 49, N-[2-(3-Carbamoylphenyl)propan-2-yl]-1-(2-cyclopentylethyl)-1H-indazole-3-carboxamide] | 0.383 ± 0.163 | 0.189 ± 0.01 µM | –
CC(c1ccc(F)cc1)n1nc(C(=O)NC(C)(C)c2cccc(C(N)=O)c2)c2ccccc21 (stereo not shown) [Compound 47, N-[2-(3-Carbamoylphenyl)propan-2-yl]-1-[1-(4-fluorophenyl)ethyl]-1H-indazole-3-carboxamide] | 0.243 ± 0.037 | – | –
CC(C)[C@H](NC(=O)c1nn(Cc2ccc(F)cc2)c2ccccc12)C(=O)O [Compound 5, (2S)-2-({1-[(4-Fluorophenyl)methyl]-1H-indazol-3-yl}formamido)-3-methylbutanoic Acid] | 5.55 ± 0.435 | 0.516 ± 0.019 µM | –
NC(=O)N1CCC[C@H](NC(=O)c2nn(Cc3ccc(F)cc3)c3ccccc23)C1 [Compound 38, N-[(3S)-1-Carbamoylpiperidin-3-yl]-1-[(4-fluorophenyl)methyl]-1H-indazole-3-carboxamide] | 0.541 ± 0.052 | 0.059 ± 0.001 µM | –
CC(C)(NC(=O)c1nn(Cc2ccc(F)cc2)c2ccccc12)C(N)=O [Compound 10, 2-({1-[(4-Fluorophenyl)methyl]-1H-indazol-3-yl}formamido)-2-methylpropanamide] | > 10 | 0.477 ± 0.142 µM | –
NC(=O)[C@@H]1CCCN1C(=O)C1(NC(=O)c2nn(Cc3ccc(F)cc3)c3ccccc23)CC1 [Compound 16, N-{1-[(2S)-2-Carbamoylpyrrolidine-1-carbonyl]cyclopropyl}-1-[(4-fluorophenyl)methyl]-1H-indazole-3-carboxamide] | 0.168 ± 0.013 | 0.19 ± 0.088 µM | –
CC(C)(CN1CCC[C@H]1C(N)=O)NC(=O)c1nn(Cc2ccc(F)cc2)c2ccccc12 [Compound 17, N-{1-[(2S)-2-Carbamoylpyrrolidin-1-yl]-2-methylpropan-2-yl}-1-[(4-fluorophenyl)methyl]-1H-indazole-3-carboxamide] | 0.032 ± 0.015 | 0.101 ± 0.034 µM | –
CC(C)(NC(=O)c1nn(Cc2ccc(F)cc2)c2ccccc12)C1CCN(C(N)=O)CC1 [Compound 36, N-[2-(1-Carbamoylpiperidin-4-yl)propan-2-yl]-1-[(4-fluorophenyl)methyl]-1H-indazole-3-carboxamide] | 2.37 ± 0.452 | 0.132 ± 0.049 µM | –
NC(=O)c1ccccc1CNC(=O)c1nn(Cc2ccc(F)cc2)c2ccccc12 [Compound 19, N-[(2-Carbamoylphenyl)methyl]-1-[(4-fluorophenyl)methyl]-1H-indazole-3-carboxamide] | 0.423 ± 0.19 | 0.052 ± 0.022 µM | –
NC(=O)c1cccc(CNC(=O)c2nn(Cc3ccc(F)cc3)c3ccccc23)c1 [Compound 20, N-[(3-Carbamoylphenyl)methyl]-1-[(4-fluorophenyl)methyl]-1H-indazole-3-carboxamide] | 0.038 ± 0.014 | 0.17 µM and 0.172 µM | 104 ± 6
CCOCCn1nc(C(=O)NC(C)(C)c2cccc(C(N)=O)c2)c2ccccc21 [Compound 58, N-[2-(3-Carbamoylphenyl)propan-2-yl]-1-(2-ethoxyethyl)-1H-indazole-3-carboxamide] | > 10 | > 10 µM | –
CC(C)(NC(=O)c1nn(Cc2ccc(Cl)cc2)c2ccccc12)c1cccc(C(N)=O)c1 [Compound 43, N-[2-(3-Carbamoylphenyl)propan-2-yl]-1-[(4-chlorophenyl)methyl]-1H-indazole-3-carboxamide] | > 10 | > 10 µM | –
